{"source": "paper PMC11352258", "about": "“The Influence of Betulin and Its Derivatives on Selected Colorectal Cancer Cell Lines’ Viability and Their Antioxidant Systems” (Cells, 2024)", "key": {"RKO cells [1]": {"system": "RKO cells", "test": "MTT cytotoxicity assay, RKO", "conditions": "Homo sapiens, 24 h", "procedure": "(§1) Six colorectal cancer cell lines, RKO, HT29, DLD-1, HCT116, Caco2 and SW1116 (CRL-2577, HTB-38, CCL-221, CCL-247, HTB-37, CCL-233; ATCC, Manassas, VA, USA, respectively, for CRC lines), and one normal cell line, CCD-841CoN (CRL-1790, ATCC, USA), were routinely cultured at 37 °C in a 5% CO2 incubator (Direct Heat CO2; Thermo Scientific, Waltham, MA, USA) in cell line-appropriate culture medium according to the manufacturer’s recommendations. Eagle’s minimum essential medium (EMEM) was used to culture RKO, Caco2 and CCD-841CoN lines, while McCoy’s 5A medium was used for HT29 and HCT116 lines. DLD-1 cells were grown in RPMI-1640 medium, whereas SW1116 cells were maintained in Leibovitz’s L-15 medium. All culture media were supplemented with 10% fetal bovine serum (EuroClone, Milan, Italy), and gentamycin at the concentration […] (BioWhittaker, Lonza, Basel, Switzerland) was also applied to prevent culture contamination.\n(§2) For this purpose, cells were exposed to the test compound for 24 h at concentrations of 0.1, 1, 10, 20, 50 and 100 μg/mL. Control cells were not treated with the compounds. MTT (0.25 mg/mL) was then added to the cultures and incubated for 3 h at 37 °C. After a time, the cells were washed with phosphate buffered saline (PBS), and next, formazan dye was dissolved in 100 μL of dimethyl sulfoxide (Sigma-Aldrich, St Louis, MO, USA). Absorbance was measured at 540 nm using a Wallac 1420 VICTOR microplate reader (PerkinElmer, Waltham, MA, USA)."}, "SW1116 cells [2]": {"system": "SW1116 cells", "test": "MTT cytotoxicity assay, SW1116", "conditions": "Homo sapiens, SW 1116, 24 h", "procedure": "as §1, §2"}, "[3]": {"system": "catalase (CAT) activity in SW1116 cells", "test": "CAT activity in SW1116 cells", "format": "cell-based", "conditions": "SW1116, 10 µg/mL, 24 h", "procedure": "(§3) In addition, two colorectal cancer cell lines, RKO and SW1116, were distinguished based on a different response to the EB5 derivative. To perform subsequent analyses, the selected CRC lines were treated with EB5 derivative at a concentration of 10 µg/mL for 24 h. Untreated cells were used as a negative control. Three biological replicates were performed.\n(§4) To examine the antioxidant capacity of the cells as well as lipid peroxidation and to evaluate the activity of antioxidant enzymes, the cells were suspended in lysis buffer (containing 4 mg of […]™ Protease Inhibitor Cocktail and 10 µL of Phosphatase Inhibitor Cocktail 3 in 1 mL of PBS; Sigma-Aldrich, St Louis, MO, USA). Subsequently, the cells were placed in liquid nitrogen for 30 min, followed by storage at −80 °C until further analysis.\n(§5) Superoxide dismutase (SOD), glutathione peroxidase (GPx) and catalase (CAT) activities were assessed using a commercially purchased Cayman Chemicals Superoxide Dismutase Assay Kit, a Cayman Chemicals Glutathione Peroxidase Assay Kit and a Catalase Assay Kit (Cayman Chemicals, Ann Arbor, MI, USA), respectively, according to the manufacturer’s recommendations and based on a previous study. The cell supernatant from previously prepared cell lysates of the tested lines provided material for further analyses. The level of change in absorbance was measured spectrophotometrically at the appropriate wavelength for the assay, i.e., for SOD in the range 440–460 nm, for GPx at 340 nm and for CAT at 540 nm."}, "SW1116 cells [4]": {"system": "SW1116 cells", "test": "Lipid peroxidation, MDA assay, SW1116", "format": "cell-based", "conditions": "SW1116, 10 µg/mL, 24 h", "procedure": "(§6) In addition, two colorectal cancer cell lines, RKO and SW1116, were distinguished based on a different response to the EB5 derivative. […] Untreated cells were used as a negative control. Three biological replicates were performed. To examine the antioxidant capacity of the cells as well as lipid peroxidation and to evaluate the activity of antioxidant enzymes, the cells were suspended in lysis buffer (containing 4 mg of […]™ Protease Inhibitor Cocktail and 10 µL of Phosphatase Inhibitor Cocktail 3 in 1 mL of PBS; Sigma-Aldrich, St Louis, MO, USA). Subsequently, the cells were placed in liquid nitrogen for 30 min, followed by storage at −80 °C until further analysis. To assess the level of lipid peroxidation, the Malondialdehyde Assay Kit (Aoxre BioSciences, Burlingame, CA, USA) was used, according to the manufacturer’s recommendations."}, "[5]": {"system": "colorectal cancer cell lines RKO, HT29, DLD-1, HCT116, Caco2 and SW1116", "test": "MTT cytotoxicity assay, statements over all tested cell lines", "conditions": "MTT, 24 h", "procedure": "as §1, §2"}, "RKO cells [6]": {"system": "RKO cells", "test": "Lipid peroxidation, MDA assay, RKO", "format": "cell-based", "conditions": "10 µg/mL, 24 h", "procedure": "as §6"}, "[7]": {"system": "superoxide dismutase (SOD) activity in RKO cells", "test": "SOD activity in RKO cells", "format": "cell-based", "conditions": "10 µg/mL, 24 h", "procedure": "as §3, §4\nas §5, with “The cell supernatant from previously prepared cell lysates of the tested lines provided material for further analyses.” left out"}, "HCT116 cells": {"system": "HCT116 cells", "test": "MTT cytotoxicity assay, HCT116", "format": "cell-based", "conditions": "Homo sapiens; HCT 116, MTT, 24 h; read-out: IC50 value", "text": "(§7) Control cells were not treated with the compounds."}, "Caco2 cells": {"system": "Caco2 cells", "test": "MTT cytotoxicity assay, Caco2", "format": "cell-based", "conditions": "Homo sapiens, Caco-2; Caco2, MTT, 24 h; read-out: IC50 value"}, "HT29 cells": {"system": "HT29 cells", "test": "MTT cytotoxicity assay, HT29", "format": "cell-based", "conditions": "Homo sapiens, HT-29; HT29, MTT, 24 h; read-out: IC50 value", "text": "as §7"}, "DLD-1 cells": {"system": "DLD-1 cells", "test": "MTT cytotoxicity assay, DLD-1", "format": "cell-based", "conditions": "Homo sapiens; DLD-1, MTT, 24 h; read-out: IC50 value", "text": "as §7"}, "[8]": {"system": "glutathione peroxidase (GPx) activity in RKO cells", "test": "GPx activity in RKO cells", "format": "cell-based", "conditions": "10 µg/mL, 24 h", "procedure": "as §3, §4\nas §5, with “The cell supernatant from previously prepared cell lysates of the tested lines provided material for further analyses.” left out"}, "[9]": {"system": "CAT gene expression in RKO cells", "test": "CAT mRNA, real-time RT-qPCR, RKO", "format": "cell-based", "conditions": "10 µg/mL, 24 h", "procedure": "as §3\nTotal RNA from treated cells was extracted using TRIzol reagent (Sigma-Aldrich, St Louis, MO, USA) according to the manufacturer’s instructions. The obtained RNA was assessed qualitatively and quantitatively by agarose gel electrophoresis and by spectrophotometric measurement using MaestroNano MN-913 (MaestroGen Inc., Las Vegas, NV, USA), respectively. The obtained extracts provided the starting material for the assessment of genes changes at the mRNA level.\nChanges in the expression of SOD1, SOD2, CAT and GPX3 genes involved in antioxidant systems were assessed by real-time RT-qPCR using a LightCycler® 480 System apparatus (Roche, Basel, Switzerland). A commercially purchased GoTaq® 1-Step RT-qPCR System (Promega, Madison, WI, USA) was used, while the primers and reaction conditions were the same as in the previous study performed by Kruszniewska-Rajs et al.. GAPDH was used as the reference gene. The mRNA expression level studied genes were then determined by the 2^−ΔCt relative quantification method. All samples were tested in triplicate. The specificity of the reaction was evaluated based on the melting temperature curve, as well as using electrophoresis of the amplification products in a 2% agarose gel."}}, "note": "Values joined by “and” are separate entries in the source; they are usually repeats but may differ in a detail not shown here. Equal values may be shown once.", "data": [{"compound": "O=c1[nH]cc(F)c(=O)[nH]1", "note": "[5FU, 5-fluorouracil]", "values": [{"measurement": "viability at 10 µg/mL", "setting": "RKO cells [1]", "value": "≥ 50", "unit": "%"}, {"measurement": "IC50", "setting": "RKO cells [1]; read-out: IC50 value", "value": "> 100 µg/mL and > 769 µM"}, {"measurement": "viability at 10 µg/mL", "setting": "SW1116 cells [2]", "value": "≥ 50", "unit": "%"}, {"measurement": "IC50", "setting": "SW1116 cells [2]; read-out: IC50 value", "value": "> 100 µg/mL and > 769 µM"}, {"measurement": "catalase activity compared to cells treated with EB5", "setting": "[3]", "value": "higher catalase activity"}, {"measurement": "catalase activity compared to cells treated with betulin", "setting": "[3]", "value": "higher catalase activity"}, {"measurement": "catalase activity compared to the control", "setting": "[3]", "value": "higher catalase activity"}, {"measurement": "MDA level compared to the control", "setting": "SW1116 cells [4]", "value": "did not cause changes"}, {"measurement": "cytotoxic effect compared with the other tested compounds", "setting": "[5]", "value": "weaker"}, {"measurement": "increase in MDA levels compared to the control cells", "setting": "RKO cells [6]", "value": "about 62.2%"}, {"measurement": "SOD activity compared to cells treated with betulin", "setting": "[7]", "value": "modest increase"}, {"measurement": "IC50", "setting": "HCT116 cells", "value": "> 100 µg/mL and > 769 µM"}, {"measurement": "IC50", "setting": "Caco2 cells", "value": "> 100 µg/mL and > 769 µM"}, {"measurement": "IC50", "setting": "HT29 cells", "value": "> 100 µg/mL and > 769 µM"}, {"measurement": "IC50", "setting": "DLD-1 cells", "value": "> 100 µg/mL and > 769 µM"}, {"measurement": "GPx activity vs. cells treated with EB5", "setting": "[8]", "value": "slight increase"}, {"measurement": "CAT gene expression vs. untreated cells", "setting": "[9]", "value": "significant decrease in expression"}]}]}
